# Source: ChEMBL document CHEMBL1201862, “PubChem BioAssay data set” (2004)
# Calls of active or inactive are those of the source. Rule as the data show it: actives have a measured IC50 and inactives only a lower limit.
# Target: Envelope glycoprotein gp160 (Human immunodeficiency virus 1, UniProt Q6QLK5)
# Assay: inhibitors of HIV fusion peptide binding, primary screen, biochemical, uHTS, fluorescence dequenching (AID 1986)
# Chain of Envelope glycoprotein gp160 (Q6QLK5 whole entry, the tested form may be a part): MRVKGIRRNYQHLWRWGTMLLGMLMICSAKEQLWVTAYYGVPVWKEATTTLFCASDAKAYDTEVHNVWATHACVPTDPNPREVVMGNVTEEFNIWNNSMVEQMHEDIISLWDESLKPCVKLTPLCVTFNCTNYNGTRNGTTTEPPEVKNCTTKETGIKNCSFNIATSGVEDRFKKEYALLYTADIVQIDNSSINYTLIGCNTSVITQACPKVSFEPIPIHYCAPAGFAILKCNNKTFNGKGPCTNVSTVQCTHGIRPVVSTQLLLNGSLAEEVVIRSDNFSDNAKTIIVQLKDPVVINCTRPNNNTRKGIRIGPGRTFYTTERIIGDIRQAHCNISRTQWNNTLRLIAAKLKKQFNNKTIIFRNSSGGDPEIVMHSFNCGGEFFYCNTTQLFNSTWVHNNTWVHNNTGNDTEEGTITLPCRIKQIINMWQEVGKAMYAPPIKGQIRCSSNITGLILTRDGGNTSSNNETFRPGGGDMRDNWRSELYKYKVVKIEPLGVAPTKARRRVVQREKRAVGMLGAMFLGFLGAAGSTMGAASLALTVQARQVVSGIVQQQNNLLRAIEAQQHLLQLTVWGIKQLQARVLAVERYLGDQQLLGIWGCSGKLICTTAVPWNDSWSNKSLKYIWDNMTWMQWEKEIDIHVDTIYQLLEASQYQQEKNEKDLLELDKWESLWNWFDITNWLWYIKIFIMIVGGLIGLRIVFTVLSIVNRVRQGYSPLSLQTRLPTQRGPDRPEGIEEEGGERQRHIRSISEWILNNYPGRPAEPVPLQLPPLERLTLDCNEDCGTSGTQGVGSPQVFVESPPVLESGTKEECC
row,Compound,IC50
1,CC(C)c1ccc(OCC(=O)Nc2cccc(C(=O)Nc3ccccc3C(=O)O)c2)cc1,16.9 µM (active)
2,O=C(O)c1ccc(Cl)c(S(=O)(=O)Nc2ccccc2C(=O)Nc2ccc(Cl)cc2)c1,17.9 µM (active)
3,Cc1cccc(OCC(=O)Nc2ccc(C(=O)Nc3ccccc3C(=O)O)cc2)c1C,28.3 µM (active)
4,COc1cc(/C=C2\SC(=O)N(Cc3ccc(F)cc3)C2=O)cc([N+](=O)[O-])c1O,19.7 µM (active)
5,C/C(=N\Nc1ccc(C(=O)O)cc1)c1ccc2c(c1)Nc1ccccc1S2,15.4 µM (active)
